Reference: PMC10889688 (2024)

Assays:
[1] = tested on: rArU (AU homopolynucleotide) (RNA, polymer) A/U; experiment: UV thermal melting at 260 nm; conditions: Na+ (sodium cacodylate, I = 0.05 mol dm^-3); sodium cacodylate buffer pH 7.0; r = [compound]/[polynucleotide] = 0.1; per base
[2] = tested on: rArU (AU homopolynucleotide) (RNA, polymer) A/U; experiment: fluorescence titration, Scatchard equation; conditions: Na+ (sodium cacodylate, I = 0.05 mol dm^-3); sodium cacodylate buffer pH 7.0, 25 °C; RNA concentration as phosphates; per base

| Compound | ΔTm [1] | logKa [2] |
| --- | --- | --- |
| CN(C)CCCNc1ccc2cc3cc(C#N)c4nc5ccccc5n4c3nc2c1 | 1.1 ± 0.5 °C | 8.6 |
| N#Cc1cc2cc3ccc(N4CCNCC4)cc3nc2n2c1nc1ccccc12 | 4.9 ± 0.5 °C | 7.9 |
